Measured values reported in PubChem BioAssay AID256 (DTP/NCI, 2004).
“And” between values parts separate entries of the source, which are not always exact repeats. Equal entries are not always repeated. Inconclusive results and toxic doses are left out. The calls were made as follows: active = survival T/C of 150% or more; inactive = T/C below 125% in these data.

Tested on: CD2F1 mice, L1210 leukemia ip, survival T/C
Assay: NCI In Vivo Anticancer Drug Screen. Data for tumor model L1210 Leukemia (intraperitoneal) in CD2F1 (CDF1) mice
Conditions: higher = longer survival
Outline: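 Tumor-bearing mice (transplanted tumor) were split into treated and vehicle control groups, and the measured endpoint of each treated group was divided by that of its vehicle controls.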

[1] = endpoint: mean survival time, dose: 25.0 mg/kg/injection, schedule: Q04DX003 (ip), vehicle: saline with Tween-80
[2] = endpoint: mean survival time, dose: 50.0 mg/kg/injection, schedule: Q04DX003 (ip), vehicle: saline with Tween-80
[3] = endpoint: mean survival time, dose: 100.0 mg/kg/injection, schedule: Q01DX009 (ip), vehicle: saline with Tween-80
[4] = endpoint: mean survival time, dose: 100.0 mg/kg/injection, schedule: Q04DX003 (ip), vehicle: saline with Tween-80
[5] = endpoint: mean survival time, dose: 200.0 mg/kg/injection, schedule: Q01DX009 (ip), vehicle: saline with Tween-80
[6] = endpoint: mean survival time, dose: 200.0 mg/kg/injection, schedule: Q04DX003 (ip), vehicle: saline with Tween-80
[7] = endpoint: mean survival time, dose: 400.0 mg/kg/injection, schedule: Q01DX009 (ip), vehicle: saline with Tween-80
[8] = endpoint: mean survival time, dose: 400.0 mg/kg/injection, schedule: Q04DX003 (ip), vehicle: saline with Tween-80
[9] = endpoint: mean survival time, dose: 50.0 mg/kg/injection, schedule: Q04DX002 (ip), vehicle: saline with Tween-80
[10] = endpoint: mean survival time, dose: 100.0 mg/kg/injection, schedule: Q04DX002 (ip), vehicle: saline with Tween-80
[11] = endpoint: mean survival time, dose: 200.0 mg/kg/injection, schedule: Q04DX002 (ip), vehicle: saline with Tween-80
[12] = endpoint: mean survival time, dose: 50.0 mg/kg/injection, schedule: Q01DX009 (ip), vehicle: saline with Tween-80
[13] = endpoint: mean survival time, dose: 100.0 mg/kg/injection, schedule: Q01DX001 (ip), vehicle: saline sonified
[14] = endpoint: mean survival time, dose: 200.0 mg/kg/injection, schedule: Q01DX001 (ip), vehicle: saline sonified
[15] = endpoint: mean survival time, dose: 400.0 mg/kg/injection, schedule: Q01DX001 (ip), vehicle: saline sonified

Measured: T/C

CC(C)OC(=O)Nc1ccc(F)cc1
inactive: endpoint: mean survival time, dose: 100.0 mg/kg/injection, schedule: Q01DX009 (ip), vehicle: other 94 % of control | endpoint: mean survival time, dose: 200.0 mg/kg/injection, schedule: Q01DX009 (ip), vehicle: other 91 % of control | endpoint: mean survival time, dose: 400.0 mg/kg/injection, schedule: Q01DX009 (ip), vehicle: other 100 % of control

CC(=O)OC1CS(=O)(=O)CC1Br (stereo not drawn)
inactive: endpoint: mean survival time, dose: 100.0 mg/kg/injection, schedule: Q01DX001 (ip), vehicle: saline with Tween-80 103 % of control | endpoint: mean survival time, dose: 200.0 mg/kg/injection, schedule: Q01DX001 (ip), vehicle: saline with Tween-80 98 % of control | endpoint: mean survival time, dose: 400.0 mg/kg/injection, schedule: Q01DX001 (ip), vehicle: saline with Tween-80 98 % of control

C=CCOc1ccncc1
inactive: endpoint: mean survival time, dose: 12.5 mg/kg/injection, schedule: Q01DX009 (ip), vehicle: saline sonified 101 % of control | endpoint: mean survival time, dose: 12.5 mg/kg/injection, schedule: Q04DX003 (ip), vehicle: saline with Tween-80 93 % of control | endpoint: mean survival time, dose: 25.0 mg/kg/injection, schedule: Q01DX009 (ip), vehicle: saline sonified 100 % of control | [1] 93 % of control | endpoint: mean survival time, dose: 50.0 mg/kg/injection, schedule: Q01DX009 (ip), vehicle: saline sonified 101 % of control | [2] 93 % of control

CCOC(=O)CC1(O)CCCCC1
inactive: [3] 101 % of control | [4] 100 % of control | [5] 101 % of control | [6] 101 % of control | [7] 100 % of control | [8] 97 % of control

CC(C)N(Cl)S(C)(=O)=O
inactive: [1] 97 % of control | [2] 93 % of control | [4] 95 % of control

O=C(O)c1cc(C(=O)O)cc(S(=O)(=O)O)c1.[NH-]C1CCCCC1[NH-].[Pt+2]
inactive: endpoint: median survival time, dose: 3.12 mg/kg/injection, schedule: Q04DX003 (ip), vehicle: saline 121 % of control and 103 % of control
active: endpoint: median survival time, dose: 12.5 mg/kg/injection, schedule: Q04DX003 (ip), vehicle: saline 168 % of control | endpoint: median survival time, dose: 25.0 mg/kg/injection, schedule: Q04DX003 (ip), vehicle: saline 176 % of control | endpoint: median survival time, dose: 50.0 mg/kg/injection, schedule: Q04DX003 (ip), vehicle: saline 235 % of control and 350 % of control | endpoint: median survival time, dose: 100.0 mg/kg/injection, schedule: Q04DX003 (ip), vehicle: saline 188 % of control

CN1C(=O)C=CC1=O (tested in a mixture with another compound)
inactive: endpoint: mean survival time, dose: 25.0 mg/kg/injection, schedule: Q04DX002 (ip), vehicle: saline with Tween-80 103 % of control | [9] 91 % of control | [10] 95 % of control | [11] 91 % of control

Cc1cc(N)c(O)cc1C
inactive: endpoint: mean survival time, dose: 100.0 mg/kg/injection, schedule: Q01DX009 (ip), vehicle: saline 96 % of control

Nc1nc(N)nc(N)n1
inactive: [3] 95 % of control | [4] 97 % of control | [5] 94 % of control | [6] 105 % of control | [7] 95 % of control | [8] 97 % of control | endpoint: mean survival time, dose: 800.0 mg/kg/injection, schedule: Q01DX009 (ip), vehicle: saline with Tween-80 90 % of control

C/C(=N/NC(=O)CC#N)c1ccccc1
inactive: endpoint: mean survival time, dose: 25.0 mg/kg/injection, schedule: Q01DX009 (ip), vehicle: saline with Tween-80 98 % of control | [12] 98 % of control | [3] 98 % of control

CCC1(C)CC(=O)NC1=O (stereo not drawn)
inactive: endpoint: mean survival time, dose: 75.0 mg/kg/injection, schedule: Q01DX001 (ip), vehicle: saline 98 % of control | endpoint: mean survival time, dose: 150.0 mg/kg/injection, schedule: Q01DX001 (ip), vehicle: saline 104 % of control | endpoint: mean survival time, dose: 300.0 mg/kg/injection, schedule: Q01DX001 (ip), vehicle: saline 96 % of control

CCSC(C(OC(C)=O)C(OC(C)=O)C(COC(C)=O)OC(C)=O)n1cc(F)c(=O)[nH]c1=O (stereo not drawn)
inactive: endpoint: mean survival time, dose: 12.5 mg/kg/injection, schedule: Q01DX005 (ip), vehicle: other 100 % of control and 104 % of control | endpoint: mean survival time, dose: 25.0 mg/kg/injection, schedule: Q01DX005 (ip), vehicle: other 98 % of control and 105 % of control | endpoint: mean survival time, dose: 50.0 mg/kg/injection, schedule: Q01DX005 (ip), vehicle: other 88 % of control and 98 % of control | endpoint: mean survival time, dose: 100.0 mg/kg/injection, schedule: Q01DX005 (ip), vehicle: other 98 % of control and 105 % of control | endpoint: mean survival time, dose: 200.0 mg/kg/injection, schedule: Q01DX005 (ip), vehicle: other 94 % of control and 107 % of control

COC(=O)c1ccc(C=O)cc1
inactive: endpoint: mean survival time, dose: 100.0 mg/kg/injection, schedule: Q04DX003 (ip), vehicle: Klucel (hydroxypropylcellulose) (HPC) 87 % of control | endpoint: mean survival time, dose: 200.0 mg/kg/injection, schedule: Q04DX003 (ip), vehicle: Klucel (hydroxypropylcellulose) (HPC) 102 % of control | endpoint: mean survival time, dose: 400.0 mg/kg/injection, schedule: Q04DX003 (ip), vehicle: Klucel (hydroxypropylcellulose) (HPC) 94 % of control

OCC1OC(O)C(O)C(O)C1O (stereo not drawn)
inactive: endpoint: mean survival time, dose: 100.0 mg/kg/injection, schedule: Q04DX003 (ip), vehicle: saline 103 % of control | endpoint: mean survival time, dose: 200.0 mg/kg/injection, schedule: Q04DX003 (ip), vehicle: saline 98 % of control | endpoint: mean survival time, dose: 400.0 mg/kg/injection, schedule: Q04DX003 (ip), vehicle: saline 98 % of control

CCO/C=C1\SC(=S)N(Cc2ccccc2)C1=O
inactive: endpoint: mean survival time, dose: 25.0 mg/kg/injection, schedule: Q01DX009 (ip), vehicle: other 105 % of control | endpoint: mean survival time, dose: 50.0 mg/kg/injection, schedule: Q01DX009 (ip), vehicle: other 115 % of control | [3] 89 % of control

CCOC(=O)C1=C(C)NC(C)=C(C(=O)OCC)C1c1ccccc1Cl
inactive: endpoint: mean survival time, dose: 12.5 mg/kg/injection, schedule: Q01DX009 (ip), vehicle: acetone 102 % of control | endpoint: mean survival time, dose: 25.0 mg/kg/injection, schedule: Q01DX009 (ip), vehicle: acetone 100 % of control | endpoint: mean survival time, dose: 50.0 mg/kg/injection, schedule: Q01DX009 (ip), vehicle: acetone 104 % of control

O=[N+]([O-])c1ccc2c(c1)-c1[nH]c3ccccc3c1CS2
inactive: endpoint: mean survival time, dose: 100.0 mg/kg/injection, schedule: Q01DX009 (ip), vehicle: Klucel (hydroxypropylcellulose) (HPC) 102 % of control | endpoint: mean survival time, dose: 200.0 mg/kg/injection, schedule: Q01DX009 (ip), vehicle: Klucel (hydroxypropylcellulose) (HPC) 101 % of control

CC(=O)CS(=O)(=O)CC(N)=O
inactive: [13] 96 % of control | [14] 96 % of control | [15] 97 % of control

CC(CN=Cc1ccccc1N)N=Cc1ccccc1N (stereo not drawn)
inactive: [9] 93 % of control | [10] 97 % of control | [11] 97 % of control | endpoint: mean survival time, dose: 400.0 mg/kg/injection, schedule: Q04DX002 (ip), vehicle: saline with Tween-80 113 % of control

CC(=O)OCC1OC(N=C=S)C(OC(C)=O)C(OC(C)=O)C1OC(C)=O (stereo not drawn)
inactive: [12] 115 % of control

CCCCC(CC(=O)O)c1ccc(Cl)cc1 (stereo not drawn)
inactive: [4] 95 % of control | [6] 101 % of control

O=NN(CCCl)C(=O)NC1[C@H](O)CCC[C@@H]1O (stereo partly drawn)
229 % of control and 108 % of control: endpoint: median survival time, dose: 1.25 mg/kg/injection, schedule: Q01DX009 (ip), vehicle: saline
inactive: endpoint: median survival time, dose: 20.0 mg/kg/injection, schedule: Q01DX009 (ip), vehicle: saline 93 % of control and 101 % of control
active: endpoint: median survival time, dose: 0.63 mg/kg/injection, schedule: Q01DX009 (ip), vehicle: saline 167 % of control | endpoint: median survival time, dose: 2.5 mg/kg/injection, schedule: Q01DX009 (ip), vehicle: saline 348 % of control and 365 % of control | endpoint: median survival time, dose: 5.0 mg/kg/injection, schedule: Q01DX009 (ip), vehicle: saline 348 % of control and 365 % of control | endpoint: median survival time, dose: 10.0 mg/kg/injection, schedule: Q01DX009 (ip), vehicle: saline 195 % of control and 218 % of control

CN(C)c1n[nH]c(=S)s1
inactive: [4] 100 % of control | [6] 100 % of control | [8] 88 % of control

ClC1(Cl)C2CCCCCCC21 (stereo not drawn)
inactive: [13] 95 % of control | endpoint: mean survival time, dose: 100.0 mg/kg/injection, schedule: Q01DX009 (ip), vehicle: saline sonified 103 % of control | [10] 91 % of control | [14] 105 % of control | endpoint: mean survival time, dose: 200.0 mg/kg/injection, schedule: Q01DX009 (ip), vehicle: saline sonified 101 % of control | [11] 95 % of control | [15] 100 % of control | endpoint: mean survival time, dose: 400.0 mg/kg/injection, schedule: Q01DX009 (ip), vehicle: saline sonified 103 % of control

Nc1ccc(O)c2ccccc12
inactive: endpoint: mean survival time, dose: 1.5 mg/kg/injection, schedule: Q04DX003 (ip), vehicle: other 111 % of control | endpoint: mean survival time, dose: 3.0 mg/kg/injection, schedule: Q04DX003 (ip), vehicle: other 102 % of control

ClCC1(CCl)COC(c2ccccc2)OC1
inactive: [3] 95 % of control | [5] 95 % of control | [7] 94 % of control

O=C(COc1cccc(Cl)c1)NCc1ccc(Cl)cc1
inactive: [4] 99 % of control | [6] 101 % of control | [8] 91 % of control
